Holding throughout (assay): two-electrode voltage clamp, Xenopus oocytes, dose-response
Assay type in all cases: cell-based, Mythimna separata

One assay deals with T1, MsepPR6.
T1 construct: full-length; with MsepOrco

The subject of another assay is T2, MsepPR1.
T2 construct: full-length; with MsepOrco

In a further assay the test system is T3, MsepPR5.
T3 construct: full-length; with MsepOrco

SMILES strings stand for the structures.

Consider `CCCC/C=C\CCCCCCCCOC(C)=O` [Z9–14:OAc, (Z)-9-tetradecen-1-yl acetate], for which the EC50 – broadly, the concentration at which the effect is half-maximal – with MsepPR6 was 0.746 µM.
Take `CCCC/C=C\CCCCCCCC=O` [Z9–14:Ald, (Z)-9-tetradecenal]: the EC50 worked out at 49 µM in the assay with MsepPR1 and 30.4 µM in the assay on MsepPR5.

Source of the values: paper PMC8113758, “Functional Characterization of Sex Pheromone Neurons and Receptors in the Armyworm, Mythimna separata (Walker)” (Frontiers in Neuroanatomy, 2021).
